Measurements as given in publication PMC6407576, “Synthesis and evaluation of anticancer, antiphospholipases, antiproteases, and antimetabolic syndrome activities of some 3H-quinazolin-4-one derivatives” (Journal of Enzyme Inhibition and Medicinal Chemistry, 2019).

How the values were obtained:
HT-29 cells = test: MTT cell viability assay; type: cell-based, Human; details: for viability at 30 µg/mL: Homo sapiens, HT-29, 24 h, read-out: cell viability; for inhibition of cell viability (in words): HT-29, 30 μg/ml, MTT
Method: (§1) Human CRC cell lines, HT-29 and SW620 cells were grown in RPMI (Invitrogen) containing 10% heat-inactivated foetal bovine serum, 100 µg/ml streptomycin, 100 units/ml penicillin and 2 mmol/l L-glutamine.
(§2) Cell viability was determined using the 3-(4, 5-dimethylthiazolyl-2)–2, 5-diphenyltetrazolium bromide) MTT assay according to Mosmann[40]. 5-Fluorouracil (5-FU) was used as positive control. Briefly, after culturing cells in 96 well plates for 24 h, they were treated with different compounds (30 μg/ml) for 24 h. Freshly prepared MTT (5 mM) solutions were added to the cells and were further incubated for 2 h at 37 °C in 5% CO2. One hundred microliters of dimethyl sulphoxide (DMSO) was added in each well to dissolve the formazan crystal, formed in the reaction during incubation by careful pipetting. The absorbance of the product was measured at 540 nm using a microplate reader. The experiments were performed in triplicate for each condition. The graph illustrates the mean and standard deviation (SD) values of three independent experiments.

SW620 cells = test: MTT cell viability assay; type: cell-based, Human; details: for viability at 30 µg/mL: Homo sapiens, SW-620, 24 h, read-out: cell viability; for inhibition of cell viability (in words): SW620, 30 μg/ml, MTT
Method: as §1, §2

[1] = target: Naja mossambica mossambica sPLA2 (NmPLA2); test: In vitro antiphospholipase activity; type: biochemical; details: 20 min preincubation, lecithin substrate, pH 7.6
thrombin = thrombin (Homo sapiens, UniProt P00734); test: In vitro antiprotease activity; type: biochemical; details: 15 min preincubation; read-out: mean IC50 against Thrombin (converted)
Method: (§3) The inhibitory effects of 21 3H-quinazolin-4-one derivatives on several available therapeutically important proteases such as cathepsin-B, collagenase, elastase, thrombin, and trypsin were investigated. […] The protease inhibitory activity was expressed as inhibition percentage, which was determined by comparison with a control experiment. The results were expressed as IC50 values that were determined from the standard curve. A protease inhibitor cocktail (Sigma) was used as the positive control.

cathepsin-B = cathepsin-B (Homo sapiens, UniProt P07858); test: In vitro antiprotease activity; type: biochemical; details: 15 min preincubation; read-out: mean IC50 against Cathepsin-B (converted)
Method: as §3

elastase = test: In vitro antiprotease activity; type: biochemical; details: 15 min preincubation
Method: as §3

collagenase = test: In vitro antiprotease activity; type: biochemical; details: 15 min preincubation
Method: as §3

trypsin = target: T1, trypsin (Bos taurus, UniProt P00760); test: In vitro antiprotease activity; type: biochemical; details: 15 min preincubation; read-out: mean IC50 against Trypsin (converted)
T1 construct: gene PRSS1
T1 sequence (P00760 24-246): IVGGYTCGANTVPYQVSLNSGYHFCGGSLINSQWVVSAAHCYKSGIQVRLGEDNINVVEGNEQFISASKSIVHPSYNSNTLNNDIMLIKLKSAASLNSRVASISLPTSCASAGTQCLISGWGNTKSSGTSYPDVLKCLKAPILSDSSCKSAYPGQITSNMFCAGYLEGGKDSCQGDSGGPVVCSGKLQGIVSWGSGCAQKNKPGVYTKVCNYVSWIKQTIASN
Method: as §3

xanthine oxidase = xanthine oxidase (Homo sapiens, UniProt P47989); test: In vitro inhibition of xanthine oxidase; type: biochemical
Method: The xanthine oxidase inhibitory activities of the examined chemical compounds were determined by following the formation of uric acid from xanthine according to the reported method by Bondet and co-workers[46]. […] The results were expressed as IC50 determined from the curve.

[2] = target: T2, human group V (hG-V) sPLA2 (Homo sapiens, UniProt P39877); test: In vitro antiphospholipase activity; type: biochemical; details: 20 min preincubation, lecithin substrate, pH 7.6; read-out: mean IC50 against hG-V (converted)
T2 sequence (P39877 21-138): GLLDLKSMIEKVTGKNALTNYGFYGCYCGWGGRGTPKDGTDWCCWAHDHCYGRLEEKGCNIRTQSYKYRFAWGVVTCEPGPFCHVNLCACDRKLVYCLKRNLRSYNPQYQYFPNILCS

[3] = target: Apis mellifera bee venom (AmPLA2) (Apis mellifera, UniProt P00630); test: biochemical
[4] = target: T3, human group IIA (hG-IIA) sPLA2 (Homo sapiens, UniProt P14555); test: In vitro antiphospholipase activity; type: biochemical
T3 sequence (P14555 21-144): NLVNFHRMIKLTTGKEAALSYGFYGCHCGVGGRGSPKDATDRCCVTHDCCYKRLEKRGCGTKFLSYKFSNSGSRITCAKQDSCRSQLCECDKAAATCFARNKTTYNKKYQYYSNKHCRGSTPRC

[5] = target: T4, human group X (hG-X) sPLA2 (Homo sapiens, UniProt O15496); test: In vitro antiphospholipase activity; type: biochemical; details: 20 min preincubation, lecithin substrate, pH 7.6; read-out: mean IC50 against hG-X (converted)
T4 sequence (O15496 43-165): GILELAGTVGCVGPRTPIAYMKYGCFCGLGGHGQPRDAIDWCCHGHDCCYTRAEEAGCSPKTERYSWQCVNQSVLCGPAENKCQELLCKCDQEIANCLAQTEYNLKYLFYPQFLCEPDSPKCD

xanthine oxidase, sequence (P47989 whole entry, species assumed): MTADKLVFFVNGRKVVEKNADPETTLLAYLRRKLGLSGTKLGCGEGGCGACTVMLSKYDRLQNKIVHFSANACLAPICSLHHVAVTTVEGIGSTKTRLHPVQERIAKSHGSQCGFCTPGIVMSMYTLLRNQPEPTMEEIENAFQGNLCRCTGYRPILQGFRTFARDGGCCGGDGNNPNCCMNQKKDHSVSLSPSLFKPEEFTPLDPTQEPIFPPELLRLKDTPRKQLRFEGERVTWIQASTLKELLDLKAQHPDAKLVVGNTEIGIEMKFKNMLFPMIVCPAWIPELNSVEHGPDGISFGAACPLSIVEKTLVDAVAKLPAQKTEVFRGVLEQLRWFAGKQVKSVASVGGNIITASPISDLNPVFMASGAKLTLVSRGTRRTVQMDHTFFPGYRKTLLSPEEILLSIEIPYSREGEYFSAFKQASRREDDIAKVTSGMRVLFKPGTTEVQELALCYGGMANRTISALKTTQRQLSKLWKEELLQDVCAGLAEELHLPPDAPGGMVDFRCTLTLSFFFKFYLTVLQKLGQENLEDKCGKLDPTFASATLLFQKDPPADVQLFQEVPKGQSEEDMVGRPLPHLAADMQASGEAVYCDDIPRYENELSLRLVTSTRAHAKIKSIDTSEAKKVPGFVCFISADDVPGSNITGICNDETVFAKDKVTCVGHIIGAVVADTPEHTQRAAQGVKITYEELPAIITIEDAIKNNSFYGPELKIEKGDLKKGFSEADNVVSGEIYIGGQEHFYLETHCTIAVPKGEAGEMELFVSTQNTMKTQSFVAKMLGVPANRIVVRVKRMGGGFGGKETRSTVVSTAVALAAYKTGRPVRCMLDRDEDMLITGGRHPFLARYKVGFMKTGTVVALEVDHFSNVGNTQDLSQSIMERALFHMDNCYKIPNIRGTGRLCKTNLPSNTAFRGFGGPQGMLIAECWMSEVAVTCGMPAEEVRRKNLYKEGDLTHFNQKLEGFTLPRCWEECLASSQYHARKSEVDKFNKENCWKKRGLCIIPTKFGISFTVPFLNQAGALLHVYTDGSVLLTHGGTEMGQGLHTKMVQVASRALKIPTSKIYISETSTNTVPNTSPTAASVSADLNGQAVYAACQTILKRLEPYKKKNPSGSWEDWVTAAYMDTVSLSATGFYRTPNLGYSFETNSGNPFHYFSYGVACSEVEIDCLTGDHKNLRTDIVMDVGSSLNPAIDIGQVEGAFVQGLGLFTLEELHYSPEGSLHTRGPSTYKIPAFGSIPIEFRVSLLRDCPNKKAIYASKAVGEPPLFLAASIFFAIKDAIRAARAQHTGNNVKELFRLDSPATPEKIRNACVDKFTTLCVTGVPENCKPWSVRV
Apis mellifera bee venom (AmPLA2), sequence (P00630 34-167 limits assumed): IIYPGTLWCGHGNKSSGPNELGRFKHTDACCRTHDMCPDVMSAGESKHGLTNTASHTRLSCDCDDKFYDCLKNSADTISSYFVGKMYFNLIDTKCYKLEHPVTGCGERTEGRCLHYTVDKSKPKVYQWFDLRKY

O=c1[nH]cc(F)c(=O)[nH]1 [Compound 5-FU, 5-Fluorouracil, reference compound]
viability at 30 µg/mL (HT-29 cells): 65.9% | viability at 30 µg/mL (SW620 cells): 42.7%

COc1cc(-n2c(C)nc3ccc(F)cc3c2=O)cc(OC)c1OC [Compound 5b, 6 -Fluoro-2-methyl-3–(3,4,5-trimethoxy-phenyl)-3H-quinazolin-4-one]
mean IC50 against NmPLA2 [1]: 4.15 ± 0.50 µg/mL | viability at 30 µg/mL (SW620 cells): 46.6% | IC50 (thrombin): 2.61 µM | IC50 (cathepsin-B): 31.9 µM | mean IC50 against Elastase (elastase): 0.70 ± 0.01 µg/mL | mean IC50 against Collagenase (collagenase): 18.00 ± 1.41 µg/mL | IC50 (trypsin): 3.19 µM | IC50 (xanthine oxidase): 15.7 µM | IC50 [2]: 36.3 µM | IC50 [3]: 14.8 µM | IC50 [4]: 60.3 µM | melting point: 193 to 195 °C | IC50 [5]: 24.7 µM

Cc1nc2ccccc2c(=O)n1/N=C/c1ccc2ccccc2c1 [Compound 8a, (E)-2-Methyl-3-[(naphthalen-2-ylmethylene)-amino]-3H-quinazolin-4-one]
mean IC50 against NmPLA2 [1]: 36.75 ± 2.48 µg/mL | inhibition of cell viability (in words) (HT-29 cells): potently capable of inhibiting cell viability | inhibition of cell viability (in words) (SW620 cells): potently capable of inhibiting cell viability | IC50 (thrombin): 109 µM | IC50 (cathepsin-B): 116 µM | mean IC50 against Elastase (elastase): 32.50 ± 2.12 µg/mL | mean IC50 against Collagenase (collagenase): 31.00 ± 1.41 µg/mL | IC50 (trypsin): 110 µM | IC50 (xanthine oxidase): 137 µM | IC50 [2]: 121 µM | IC50 [3]: 98.9 µM | IC50 [4]: 145 µM | IC50 [5]: 90.9 µM

COc1cccc(/C=N/n2c(C)nc3ccc(Br)cc3c2=O)c1[N+](=O)[O-] [Compound 8f, (E)-6-Bromo-3-[(3-methoxy-2-nitro-benzylidene)-amino]-2-methyl-3H-quinazolin-4-one]
mean IC50 against NmPLA2 [1]: 6.00 ± 0.71 µg/mL | inhibition of cell viability (in words) (HT-29 cells): potently capable of inhibiting cell viability | inhibition of cell viability (in words) (SW620 cells): potently capable of inhibiting cell viability | IC50 (thrombin): 59.9 µM | IC50 (cathepsin-B): 45.5 µM | mean IC50 against Elastase (elastase): 30.50 ± 2.12 µg/mL | mean IC50 against Collagenase (collagenase): 15.50 ± 2.12 µg/mL | IC50 (trypsin): 74.3 µM | IC50 (xanthine oxidase): 7.19 µM | IC50 [2]: 37.7 µM | IC50 [3]: 10.1 µM | IC50 [4]: 44.6 µM | melting point: 234 to 235 °C | IC50 [5]: 43.1 µM

Cc1nc2ccc(Br)cc2c(=O)n1/N=C/c1ccc(-c2ccccc2)cc1 [Compound 8j, (E)-3-[(Biphenyl-4-ylmethylene)-amino]-6-bromo-2-methyl-3H-quinazolin-4-one]
mean IC50 against NmPLA2 [1]: 16.40 ± 0.85 µg/mL | inhibition of cell viability (in words) (HT-29 cells): potently capable of inhibiting cell viability | inhibition of cell viability (in words) (SW620 cells): potently capable of inhibiting cell viability | IC50 (thrombin): 29.9 µM | IC50 (cathepsin-B): 3.35 µM | mean IC50 against Elastase (elastase): 9.00 ± 0.41 µg/mL | mean IC50 against Collagenase (collagenase): 14.00 ± 1.41 µg/mL | IC50 (trypsin): 22.7 µM | IC50 (xanthine oxidase): 49 µM | IC50 [2]: 14.9 µM | IC50 [3]: 45.4 µM | IC50 [4]: 20.2 µM | melting point: 208 to 210 °C | IC50 [5]: 22.6 µM

O=c1c2ccccc2nc(SCc2ccc(Cl)cc2)n1-c1ccccc1 [Compound 15a]
mean IC50 against NmPLA2 [1]: 5.40 ± 0.57 µg/mL | inhibition of cell viability (in words) (HT-29 cells): potently capable of inhibiting cell viability | inhibition of cell viability (in words) (SW620 cells): potently capable of inhibiting cell viability | IC50 (thrombin): 35.6 µM | IC50 (cathepsin-B): 48.8 µM | mean IC50 against Elastase (elastase): 11.50 ± 2.12 µg/mL | mean IC50 against Collagenase (collagenase): 28.00 ± 1.41 µg/mL | IC50 (trypsin): 31.7 µM | IC50 (xanthine oxidase): 31.7 µM | IC50 [2]: 27.7 µM | IC50 [3]: 17.2 µM | IC50 [4]: 22.7 µM | IC50 [5]: 17.8 µM

Cc1ccc2nc(SCc3ccc(Cl)cc3)n(-c3ccccc3)c(=O)c2c1 [Compound 15b, 2-(4-Chloro-benzylsulfanyl)-6-methyl-3-phenyl-3H-quinazolin-4-one]
mean IC50 against NmPLA2 [1]: 14.85 ± 0.50 µg/mL | inhibition of cell viability (in words) (HT-29 cells): potently capable of inhibiting cell viability | inhibition of cell viability (in words) (SW620 cells): potently capable of inhibiting cell viability | IC50 (thrombin): 2.55 µM | IC50 (cathepsin-B): 34.4 µM | mean IC50 against Elastase (elastase): 0.65 ± 0.02 µg/mL | mean IC50 against Collagenase (collagenase): 26.50 ± 2.12 µg/mL | IC50 (trypsin): 1.27 µM | IC50 (xanthine oxidase): 49.6 µM | IC50 [2]: 46.8 µM | IC50 [3]: 34.6 µM | IC50 [4]: 66.2 µM | melting point: 164 to 165 °C | IC50 [5]: 34.4 µM

Cc1cccc(C)c1NC(=O)CSc1nc2ccccc2c(=O)n1-c1ccccc1 [Compound 15c, N-(2,6-Dimethyl-phenyl)-2-(4-oxo-3-phenyl-3,4-dihydro-quinazolin-2-ylsulfanyl)-acetamide]
mean IC50 against NmPLA2 [1]: 28.50 ± 2.12 µg/mL | viability at 30 µg/mL (HT-29 cells): 47.5% | IC50 (thrombin): 42.1 µM | IC50 (cathepsin-B): 26.5 µM | mean IC50 against Elastase (elastase): 18.50 ± 0.71 µg/mL | mean IC50 against Collagenase (collagenase): 18.00 ± 1.41 µg/mL | IC50 (trypsin): 37.3 µM | IC50 (xanthine oxidase): 148 µM | IC50 [2]: 56.6 µM | IC50 [3]: 52.9 µM | IC50 [4]: 96.3 µM | melting point: 218 to 220 °C | IC50 [5]: 102 µM
